{"source": "paper PMC9879200", "about": "“Dual-target ligand discovery for Alzheimer’s disease: triphenylphosphoranylidene derivatives as inhibitors of acetylcholinesterase and β-amyloid aggregation” (Journal of Enzyme Inhibition and Medicinal Chemistry, 2023)", "key": {"[1]": {"biological_target": "T1, AChE (Homo sapiens, UniProt P22303)", "T1 construct": "purchased Bioassays System (BioAssay Systems) IACE-100", "T1 sequence (P22303 32-614)": "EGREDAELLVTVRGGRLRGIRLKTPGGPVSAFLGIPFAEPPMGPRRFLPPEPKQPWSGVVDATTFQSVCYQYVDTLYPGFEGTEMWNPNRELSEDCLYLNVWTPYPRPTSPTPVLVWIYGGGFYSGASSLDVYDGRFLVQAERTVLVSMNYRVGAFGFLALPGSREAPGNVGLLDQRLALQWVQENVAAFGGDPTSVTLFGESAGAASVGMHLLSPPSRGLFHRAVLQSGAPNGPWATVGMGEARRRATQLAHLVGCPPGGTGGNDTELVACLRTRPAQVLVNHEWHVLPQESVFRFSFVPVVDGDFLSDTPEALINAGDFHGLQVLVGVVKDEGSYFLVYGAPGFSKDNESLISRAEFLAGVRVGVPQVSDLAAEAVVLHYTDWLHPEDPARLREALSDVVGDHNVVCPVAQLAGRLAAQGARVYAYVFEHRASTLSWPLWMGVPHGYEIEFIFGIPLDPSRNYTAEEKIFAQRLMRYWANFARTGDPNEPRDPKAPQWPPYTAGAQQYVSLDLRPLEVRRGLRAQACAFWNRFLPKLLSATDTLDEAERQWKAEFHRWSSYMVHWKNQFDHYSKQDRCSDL", "assay": "In vitro AChE inhibition assay (improved Ellman spectrophotometric method)", "assay_type": "biochemical", "description": "(§1) For AChE and BuChE inhibition experiments, Ellman et al. method’s was applied with a few minor adjustments. According to the manufacturer’s recommendations, the QuantiChromTM AChE Inhibitor Screening Kit (IACE-100), Bioassays System, and the Cholinesterase (ChE) Activity Assay Kit, LifeSpan BioSciences, Inc., USA, were used to measure the inhibition of AChE and BuChE, respectively. […] The relationship between product colour and enzyme activity after inhibition is established. Substrates included butyrylthiocholine iodide and acetylthiocholine iodide."}, "[2]": {"system": "scopolamine-induced memory impairment in mice", "assay": "Y-maze test, scopolamine-induced amnesia model", "assay_type": "in vivo", "quoted_text": "In order to test potential anticholinergic medication candidates, the in vivo scopolamine model was employed to cause memory impairment in mice. Scopolamine can inhibit the cholinergic system by antagonising the muscarinic receptor[47].\nAnimal working memory is assessed using the hippocampal-dependent Y-maze test. Working memory is measured using the spontaneous alternation score[48].\nIn the current investigation, adult Swiss Albino mice (8–10 weeks old, weighing 25–30 g) from the National Research Centre were employed. For 1 week, animals were acclimated in a room with constant illumination, humidity, and temperature (22 °C ± 1 °C, 60%, and 12 h of light/dark cycle). Throughout the experiment, unlimited amounts of food and water were given. Mice were kept in open, opaque propylene cages with good ventilation and wide access to a variety of forages.\n(§4) Healthy mice were randomised into four groups of six mice each after a 1-week adaption period, at random, as follows: Group 1 is the control group, which received saline solution with 10% Tween 80. […] Following the injection of scopolamine, the behavioural study will be examined 30 min later.\nIn the Y-maze, a test of working memory, the animals’ capacity for spontaneous alternation was evaluated[49]. Three equally spaced horizontal arms measuring 120°, 45 cm long, and 16 cm high make up the Y-maze. Each mouse was put into one of the three arms of the maze and given free rein to wander from arm to arm. Both the number and order of arm inputs were recorded. The spontaneous alternation is derived from the following equation as a measure of memory performance: (Alternations/Total Arm Entries) − 2 × 100 = percent alternation. The student’s t-test was used to assess the data."}, "[3]": {"system": "scopolamine-induced cognitive impairment", "assay": "Step-down passive avoidance test, scopolamine-induced amnesia model", "assay_type": "in vivo", "details": "mice; for transfer latency time (TLT), passive avoidance test: 1 mg/kg orally 30 min before scopolamine 3 mg/kg intraperitoneal", "quoted_text": "In order to test potential anticholinergic medication candidates, the in vivo scopolamine model was employed to cause memory impairment in mice.\nFor 1 week, animals were acclimated in a room with constant illumination, humidity, and temperature (22 °C ± 1 °C, 60%, and 12 h of light/dark cycle). Throughout the experiment, unlimited amounts of food and water were given. Mice were kept in open, opaque propylene cages with good ventilation and wide access to a variety of forages.\nas §4\nThe passive avoidance test was conducted in a device that had two independent compartments split by a sliding door. There was a connection between the illuminated chamber and a dark compartment with an electrifiable grid floor, which was free of electric impulses. Each mouse was initially placed in the lit chamber so that it could become accustomed to it. The sliding door is then opened, allowing access to the enclosed, gloomy space. The door was shut once the animal had entered the chamber entirely, and it was then shocked with an electric shock lasting two seconds (24 V, 0.5 mA). The latency time to enter the dark container was measured to gauge working memory (Training trial). Twenty-four hours after the training trial, a test trial was carried out without application of the electric foot shock[50]."}, "[4]": {"biological_target": "T2, Aβ1–42 (Homo sapiens, UniProt P05067)", "T2 construct": "the beta amyloid 1–42 (Aβ42) Ligand Screening Assay Kit (Fluorometric) (K570-100); purchased BioVision K570-100", "T2 sequence (P05067 672-713 limits assumed)": "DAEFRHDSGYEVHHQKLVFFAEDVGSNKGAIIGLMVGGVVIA", "assay": "Self-induced Aβ1–42 aggregation inhibition assay (Thioflavin T, fluorometric)", "assay_type": "biochemical", "details": "Thioflavin T fluorescence; read-out: Self-induced Aβ1–42 aggregation IC50 (nM) ± SD"}, "[5]": {"biological_target": "T3, BuChE enzyme (Homo sapiens, UniProt P06276)", "T3 construct": "purchased LifeSpan BioSciences, Inc., USA", "T3 sequence (P06276 29-602)": "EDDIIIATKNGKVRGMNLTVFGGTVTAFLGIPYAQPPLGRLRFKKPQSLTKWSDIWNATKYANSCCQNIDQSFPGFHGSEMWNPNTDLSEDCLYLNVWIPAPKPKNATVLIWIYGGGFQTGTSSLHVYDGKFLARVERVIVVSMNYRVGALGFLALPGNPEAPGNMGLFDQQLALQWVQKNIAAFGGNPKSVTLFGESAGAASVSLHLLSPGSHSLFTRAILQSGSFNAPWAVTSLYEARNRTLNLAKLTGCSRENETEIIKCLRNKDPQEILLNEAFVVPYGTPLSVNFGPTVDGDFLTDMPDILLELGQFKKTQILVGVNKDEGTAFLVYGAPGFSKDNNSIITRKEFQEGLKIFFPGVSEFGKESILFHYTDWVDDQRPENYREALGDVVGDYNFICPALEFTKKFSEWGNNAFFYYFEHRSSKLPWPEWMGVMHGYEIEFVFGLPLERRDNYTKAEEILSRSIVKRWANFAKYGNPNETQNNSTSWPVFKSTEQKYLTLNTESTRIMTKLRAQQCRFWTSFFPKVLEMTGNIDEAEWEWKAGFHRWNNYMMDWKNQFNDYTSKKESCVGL", "assay": "In vitro BuChE inhibition assay (modified Ellman spectrophotometric method)", "assay_type": "biochemical", "experimental": "This was carried out by using the modified Ellman spectrophotometric method.\nas §1"}, "[6]": {"biological_target": "T4, MMP-2 (Homo sapiens, UniProt P08253)", "T4 construct": "purchased Abcam ab139447", "T4 sequence (P08253 110-660)": "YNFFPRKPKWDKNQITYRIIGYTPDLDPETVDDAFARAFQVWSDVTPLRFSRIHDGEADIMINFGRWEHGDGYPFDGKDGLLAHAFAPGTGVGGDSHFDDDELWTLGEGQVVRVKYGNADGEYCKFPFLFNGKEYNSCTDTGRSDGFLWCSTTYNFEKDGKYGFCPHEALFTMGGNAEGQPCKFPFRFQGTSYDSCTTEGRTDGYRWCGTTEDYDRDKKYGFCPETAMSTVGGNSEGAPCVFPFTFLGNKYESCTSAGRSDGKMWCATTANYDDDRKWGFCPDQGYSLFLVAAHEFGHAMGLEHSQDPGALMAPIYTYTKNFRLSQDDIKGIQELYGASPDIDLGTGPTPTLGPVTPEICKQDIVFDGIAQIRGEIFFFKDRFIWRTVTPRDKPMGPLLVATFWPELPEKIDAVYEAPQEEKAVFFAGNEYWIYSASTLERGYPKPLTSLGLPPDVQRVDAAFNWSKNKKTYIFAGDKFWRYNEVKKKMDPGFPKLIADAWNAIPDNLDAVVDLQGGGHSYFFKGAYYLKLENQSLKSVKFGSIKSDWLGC", "assay": "MMP-2 inhibitor screening assay (fluorometric, FRET peptide)", "assay_type": "biochemical", "description": "Matrix Metalloproteinase-2 (MMP-2) is known for its impact on neurological disorders as AD[44–46].\nThis assay kit uses a fluorescence resonance energy transfer (FRET) peptide as a generic MMP activity indicator. In the intact FRET peptide, the fluorescence of one part is quenched by another. After cleavage into two separate fragments by MMPs, the fluorescence is recovered."}, "[7]": {"biological_target": "T1, AChE", "assay": "Kinetic study of AChE inhibition (Lineweaver-Burk and Dixon plots)", "assay_type": "biochemical", "description": "Figure 5.\nas §1"}, "[8]": {"assay": "SH-SY5Y neuroblastoma cell toxicity (MTT assay)", "details": "human, SH-SY5Y neuroblastoma cells", "experimental": "(§2) The cell viability was determined through using MTT assay.\n(§3) The American Type Culture Collection provided the cells (Rockville, MD). […] The chemical was applied to the cells at various doses ([…]) for 48 h. The MTT colorimetric assay’s described methodology was then used[57]."}, "[9]": {"system": "AChE (IC50 in the denominator)", "assay": "SH-SY5Y neuroblastoma cell toxicity (MTT assay)", "details": "human, SH-SY5Y neuroblastoma cells", "experimental": "as §2, §3"}, "[10]": {"details": "read-out: AChE IC50 (nM) ± SD, average of triplicate determination, Ellman method, pH 7.5"}}, "note": "Entries after “also recorded” stand apart in the source; their conditions may differ. Where two headings read alike, the source gives them in different places.", "data": [{"smiles": "C[Si]1(Cl)C=C/C(=N\\c2ccccc2)C1=P(c1ccccc1)(c1ccccc1)c1ccccc1", "note": "(stereo not shown) [C00001]", "values": [{"measurement": "IC50", "setting": "[1]", "value": "206 ± 7.33", "unit": "nM"}]}, {"smiles": "c1ccc(N=c2c(-c3ccccc3)c(-c3ccccc3)c2=P(c2ccccc2)(c2ccccc2)c2ccccc2)cc1", "note": "[11a, N-(2,3-diphenyl-4-(triphenylphosphoranylidene)cyclobut-2-en-1-ylidene)aniline]", "values": [{"measurement": "IC50", "setting": "[1]", "value": 185, "unit": "nM"}]}, {"smiles": "C=CC(C(=O)c1ccccc1)=P(c1ccccc1)(c1ccccc1)c1ccccc1", "note": "[8d, 1-Phenyl-2-(triphenylphosphoranylidene)but-3-en-1-one]", "values": [{"measurement": "IC50", "setting": "[1]", "value": 426, "unit": "nM"}]}, {"smiles": "c1ccc(/N=c2/c(-c3ccccc3)c(-c3ccccc3)c2=P(c2ccccc2)(c2ccccc2)c2ccccc2)cc1", "note": "[C00002]", "values": [{"measurement": "IC50", "setting": "[1]", "value": "185 ± 9.22", "unit": "nM"}]}, {"smiles": "C=CC(C(=O)OC)=P(c1ccccc1)(c1ccccc1)c1ccccc1", "note": "[8b, Methyl 2-(triphenylphosphoranylidene)but-3-enoate]", "values": [{"measurement": "IC50", "setting": "[1]", "value": 158, "unit": "nM"}]}, {"smiles": "C[Si]1(Cl)C=CC(=Nc2ccccc2)C1=P(c1ccccc1)(c1ccccc1)c1ccccc1", "note": "(stereo not shown) [5a, N-(1-chloro-1-methyl-2-(triphenylphosphoranylidene)-1H-silol-3(2H)-ylidene)aniline]", "values": [{"measurement": "IC50", "setting": "[1]", "value": 206, "unit": "nM"}]}, {"smiles": "O=c1c(-c2ccccc2)c(-c2ccccc2)c1=P(c1ccccc1)(c1ccccc1)c1ccccc1", "note": "[11b, 2,3-Diphenyl-4-(triphenylphosphoranylidene)cyclobut-2-enone]", "values": [{"measurement": "IC50", "setting": "[1]", "value": 508, "unit": "nM"}]}, {"smiles": "CN1[C@@H]2C[C@@H](OC(=O)[C@H](CO)c3ccccc3)C[C@H]1[C@@H]1O[C@@H]12", "note": "[Scopolamine]", "values": [{"measurement": "Y-maze test, percent alternations, scopolamine model group", "setting": "[2]; mice, scopolamine 3 mg/kg intraperitoneal alone, control group 82.1", "value": 51.2, "unit": "%"}, {"measurement": "transfer latency time (TLT), passive avoidance test, scopolamine-treated group", "setting": "[3]; scopolamine 3 mg/kg intraperitoneal alone", "value": 27.2, "unit": "s"}]}, {"smiles": "CCc1c(CC)/c(=N/c2ccccc2)c1=P(c1ccccc1)(c1ccccc1)c1ccccc1", "note": "[C00006]", "values": [{"measurement": "IC50", "setting": "[1]", "value": "507 ± 22.1", "unit": "nM"}]}, {"smiles": "C[Si](C)(C)c1c([Si](C)(C)C)c(=P(c2ccccc2)(c2ccccc2)c2ccccc2)c1=O", "note": "[C00010]", "values": [{"measurement": "IC50", "setting": "[1]; [10]", "value": "113 ± 4.82", "unit": "nM"}]}, {"smiles": "COc1cc2c(cc1OC)C(=O)C(CC1CCN(Cc3ccccc3)CC1)C2", "note": "(stereo not shown) [Donepezil]", "values": [{"measurement": "Y-maze test, percent alternations", "setting": "[2]; 1 mg/kg", "value": 80.7, "unit": "%"}, {"measurement": "transfer latency time (TLT), passive avoidance test", "setting": "[3]", "value": 44.0, "unit": "s"}]}, {"smiles": "CCc1c(CC)c(=P(c2ccccc2)(c2ccccc2)c2ccccc2)c1=O", "note": "[C00008]", "values": [{"measurement": "IC50", "setting": "[1]; [10]", "value": "249 ± 10.4", "unit": "nM"}]}, {"smiles": "CCc1c(CC)c(=P(c2ccccc2)(c2ccccc2)c2ccccc2)c1=O", "note": "[13b, 2,3-Diethyl-4-(triphenylphosphoranylidene)cyclobut-2-enone]", "values": [{"measurement": "IC50", "setting": "[1]", "value": 249, "unit": "nM"}]}, {"smiles": "C[Si]1(Cl)C=CC(=O)C1=P(c1ccccc1)(c1ccccc1)c1ccccc1", "note": "(stereo not shown) [5b, 1-Chloro-1-methyl-2-(triphenylphosphoranylidene)-1H-silol-3(2H)-one]", "values": [{"measurement": "IC50", "setting": "[1]", "value": 345, "unit": "nM"}]}, {"smiles": "C[Si](C)(C)c1c([Si](C)(C)C)c(=P(c2ccccc2)(c2ccccc2)c2ccccc2)c1=O", "note": "[compound 15, 2,3-Bis(trimethylsilyl)-4-(triphenylphosphoranylidene)cyclobut-2-enone]", "values": [{"measurement": "IC50", "setting": "[1]", "value": 113, "unit": "nM"}]}, {"smiles": "C=CC(C(C)=O)=P(c1ccccc1)(c1ccccc1)c1ccccc1", "note": "[8c, 3-(Triphenylphosphoranylidene)pent-4-en-2-one]", "values": [{"measurement": "IC50", "setting": "[4]", "value": "302 ± 11.4", "unit": "nM"}, {"measurement": "IC50", "setting": "[5]", "value": "84.8 ± 2.91", "unit": "nM"}, {"measurement": "Selectivity index", "setting": "[5]; Selectivity index = (BuChE IC50)/(AChE IC50)", "value": 0.87}, {"measurement": "Y-maze test, percent alternations", "setting": "[2]; mice, 1 mg/kg orally 30 min before scopolamine 3 mg/kg intraperitoneal", "value": 83.9, "unit": "%"}, {"measurement": "IC50", "setting": "[6]", "value": "724 ± 16.5", "unit": "nM"}, {"measurement": "type of AChE inhibition", "setting": "[7]; Lineweaver-Burk plot, Vmax and Km patterns", "value": "uncompetitively; also recorded: uncompetitive"}, {"measurement": "Ki", "setting": "[7]; estimate from Dixon plot, read-out: inhibitory constant, Ki", "value": 15.7, "unit": "nM"}, {"measurement": "CC50 at 48 h", "setting": "[8]", "value": "7310 ± 260", "unit": "nM"}, {"measurement": "selectivity ratio at 48 h", "setting": "[9]", "value": 75.3}, {"measurement": "IC50", "setting": "[1]", "value": 97, "unit": "nM"}, {"measurement": "transfer latency time (TLT), passive avoidance test", "setting": "[3]", "value": 45.2, "unit": "s"}]}]}
